According to patent publication US9353096B2, “Substituted phenylcarbamate compounds” (Hoffmann-La Roche Inc., priority 2012, dated 2016):
Structures can show the parent of a compound that is named as a salt.

The compounds below were run against hTRPA1 (Homo sapiens, UniProt O75762) (assay: Dose response calcium flux (FLIPR) assay, ChanTest hTRPA1-CHO stably transfected cell line, cinnamaldehyde agonist). Conditions: CHO-K1 Tet-On hTRPA1 cells, 100 uM cinnamaldehyde agonist, 30 min preincubation.
Type: cell-based
Experimental: Dose Response Assay:ChanTest hTRPA1-CHO Stably Transfected Cell Line
CHO-K1 Tet-On_HOMSA_TRPA1_Clone_20
Growth Media for CHO-K1 Tet-On_HOMSA_TRPA1_Clone_20 • Ham's F-12 with 10% tetracycline-free FBS • 1× penicillin-streptomycin • 1× glutamax • 0.01 mg/ml Blasticidin • 0.40 mg/ml Zeocin • The cell line doubling rate was ˜15 h. […] Experiments were run at 24 h post induction.
Plating Conditions CHOK1/TRPA1 Cells: • Harvested cells with 0.025% trypsin/EDTA. • Resuspended cells in growth media without selection antibiotics. • Measured cell density and diluted to 2.4×10^5 cells/ml in media containing 1 ug/ml Doxycycline Plate 25 ul/well into 384 well black/clear tissue culture-treated plates. • Incubated overnight at 37° C.
Replacement Buffer: Hank's Balanced Salt Solution, 20 mM HEPES along with 0.005% BSA and 2× Probenecid
Dye Loading Buffer: Cal-3 NW Calcium dye was prepared by dissolving the contents of one vial with […] Hank's Balanced Salt Solution containing 20 mM HEPES.
AP-18, stock 10 mM, prepare 3.5× compound dilution in a Compound Buffer (HBSS/20 mM HEPES/0.005% BSA)—final concentration 10 uM.
Preparation of Cinnamaldehyde (Agonist Addition): • FW=132.16 • Specific gravity=1.046 gm/cc • 1.32 gm/1.046 gm/cc=1.26 ml of stock • Add 1.74 ml DMSO=3.3 M stock • Working solution 4.5× (final 100 uM in Compound Buffer: HBSS/20 mM HEPES/0.005% BSA)
Compounds dilutions were prepared from 5 or 10 mM stock (100% DMSO): • Adjustments of volumes and concentrations were made at time of titration to reflect desired final assay concentrations. • Compounds were tested at either 20 μM three folds dilution 11 steps out or 30 μM two folds dilution 11 steps out. • 3 μl of diluted compound were transferred into Weidmann 384-well plate in duplicates side-by-side. • Compound plates were resuspended with 100 ul of HBSS/20 mM HEPES/0.005% BSA buffer (Compound Buffer): • column 1A-H: buffer/DMSO (bk) • column 2A-H: AP-18 (control antagonist for CHOK1 TRPA1 cells) • column 1I-P: ATP (control for CHOK1 teton cells) • column 2I-P: 2APB (control antagonist for CHOK1/TRPM8 cells).
Growth media was removed from the cell plates (20 ul) and 20 μl of the Replacement Buffer was added followed by addition of 25 μl of diluted dye. All three steps were performed using a Plate Washer BioTek 407. The plates were then incubated for 30′ at RT.
After incubation, both the cell and compound plates were brought to the FLIPR and 20 μl of the diluted compounds/antagonist/bk were transferred to the cell plates by the FLIPR. Plates were then incubated for 30′ at room temperature. After 30′ incubation, plates were returned to the FLIPR and 20 μl of 4.5× Cinnamaldehyde was added to the cell plates. During the compound addition as well as agonist addition, fluorescence readings were taken simultaneously from all 384 wells of the cell plate every 1.5 seconds. Five readings were taken to establish a stable baseline, then 20 μl of sample was rapidly (30 ul/sec) and simultaneously added to each well of the cell plate. The fluorescence was continuously monitored before, during and after sample/agonist addition for a total elapsed time of 100 seconds (compound addition) and 120 seconds (agonist addition). Responses (increase in peak fluorescence) in each well following agonist addition was determined. The initial fluorescence reading from each well, prior to ligand stimulation, was used a zero baseline value for the data from that well.

Sequence of hTRPA1 (O75762 whole entry): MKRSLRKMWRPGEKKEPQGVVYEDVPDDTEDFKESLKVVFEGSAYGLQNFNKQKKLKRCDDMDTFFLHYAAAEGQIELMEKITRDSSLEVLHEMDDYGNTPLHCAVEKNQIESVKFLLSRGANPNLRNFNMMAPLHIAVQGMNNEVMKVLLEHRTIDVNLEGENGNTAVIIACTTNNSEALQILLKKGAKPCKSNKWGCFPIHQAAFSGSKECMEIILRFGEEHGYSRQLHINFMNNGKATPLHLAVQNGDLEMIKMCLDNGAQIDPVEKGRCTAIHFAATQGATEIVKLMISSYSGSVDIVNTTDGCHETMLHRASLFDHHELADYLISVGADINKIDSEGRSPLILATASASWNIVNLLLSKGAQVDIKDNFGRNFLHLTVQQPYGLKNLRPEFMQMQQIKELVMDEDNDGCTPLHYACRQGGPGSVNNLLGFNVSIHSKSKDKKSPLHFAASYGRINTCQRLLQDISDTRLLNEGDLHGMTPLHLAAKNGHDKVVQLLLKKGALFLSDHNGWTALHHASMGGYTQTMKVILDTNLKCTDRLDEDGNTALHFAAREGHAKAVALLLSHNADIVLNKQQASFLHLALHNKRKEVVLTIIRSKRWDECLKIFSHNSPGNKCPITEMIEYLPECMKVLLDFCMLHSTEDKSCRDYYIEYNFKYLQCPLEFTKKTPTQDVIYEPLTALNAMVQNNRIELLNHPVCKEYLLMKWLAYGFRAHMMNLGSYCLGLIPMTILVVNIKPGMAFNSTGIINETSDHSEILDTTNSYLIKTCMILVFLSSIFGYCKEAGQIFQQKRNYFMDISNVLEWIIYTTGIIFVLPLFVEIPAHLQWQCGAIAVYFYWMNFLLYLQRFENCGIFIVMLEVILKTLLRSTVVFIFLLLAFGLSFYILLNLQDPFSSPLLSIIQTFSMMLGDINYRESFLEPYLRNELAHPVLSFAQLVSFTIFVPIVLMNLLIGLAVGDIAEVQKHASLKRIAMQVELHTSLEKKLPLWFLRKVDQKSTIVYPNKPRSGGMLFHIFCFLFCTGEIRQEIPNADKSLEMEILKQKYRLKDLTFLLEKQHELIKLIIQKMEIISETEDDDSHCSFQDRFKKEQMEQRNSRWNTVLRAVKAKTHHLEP

IC50	Compound
0.078 µM	O=C(Nc1ccc(Cl)nc1)O[C@@H](CN1CCOC(c2cccc(C(F)(F)F)c2)C1)C(F)(F)F (stereo partly drawn) [Example 38, (6-Chloropyridin-3-yl)carbamic acid (S)-2,2,2-trifluoro-1-[2-3-trifluoromethylphenyl]-morpholin-4-ylmethyl]-ethyl ester hydrochloride]
0.244 µM	COc1ccc(C[C@@H]2CN(C[C@H](OC(=O)Nc3ccc(Cl)cc3)C(F)(F)F)CCO2)cn1 [Example 50, (4-Chloro-phenyl)-carbamic acid (S)-2,2,2-trifluoro-1-[(R)-2-(6-methoxy-pyridin-3-ylmethyl)-morpholin-4-ylmethyl]ethyl ester]

Continued, compound first:

Compound	IC50
O=C(Nc1ccc(Cl)c(F)c1)O[C@@H](CN1CCO[C@H](c2cccc(Cl)c2)C1)C(F)(F)F [Example 6, (4-Chloro-3-fluorophenyl)-carbamic acid (S)-1-[(R)-2-(3-chlorophenyl)-morpholin-4-ylmethyl]-2,2,2-trifluoroethyl ester hydrochloride]	0.0505 µM
O=C(Nc1ccc(Cl)c(F)c1)O[C@@H](CN1CCO[C@@H](c2ccc(C(F)(F)F)nc2)C1)C(F)(F)F (single isomer, unassigned) [Example 23, hydrochloride]	0.781 µM
O=C(Nc1ccc(Cl)cc1)O[C@@H](CN1CCO[C@H](Cc2ccccc2)C1)C(F)(F)F [Example 9, (4-Chlorophenyl)-carbamic acid (S)-1-((R)-2-benzyl-morpholin-4-ylmethyl)-2,2,2-trifluoroethyl ester hydrochloride]	0.121 µM
